Measurements: ChEMBL document CHEMBL1139718, “Design, total synthesis, and biological evaluation of neodysiherbaine A derivative as potential probes” (Bioorg Med Chem Lett, 2006)

Experiments:
[1] = Displacement of [3H]AMPA from AMPA receptor in rat synaptic membrane; type: cell membranes
Mus musculus = test: Epileptogenic activity in mouse, icv; type: functional
[2] = Displacement of [3H]kainic acid from Kainate receptor in rat synaptic membrane; type: cell membranes

SMILES | Ki [1] | ED50 (Mus musculus) | Ki [2]
N[C@@H](C[C@]1(C(=O)O)C[C@H]2O[C@H](CO)[C@@H](O)[C@@H](O)[C@H]2O1)C(=O)O [10-HYDROXY-METHYL-NEODYSIHERBAINE A] | 153 nM | 110 pmol | 790 nM
CN[C@H]1[C@H]2O[C@@](C[C@H](N)C(=O)O)(C(=O)O)C[C@H]2OC[C@H]1O [DYSIHERBAINE] | 153 nM | 13 pmol | 26 nM
N[C@@H](C[C@]1(C(=O)O)C[C@H]2OC[C@@H](O)[C@@H](O)[C@H]2O1)C(=O)O [NEODYSIHERBAINE A] | 151 nM | 16 pmol | 52 nM
